# US20210309657A1, “TRICYCLIC COMPOUNDS FOR THE TREATMENT AND PROPHYLAXIS OF BACTERIAL INFECTION” (Hoffmann-La Roche Inc., priority 2018, published 2021)
# Key:
# A. baumannii (ATCC17978) = test: 50% growth inhibitory concentration (IC50) determination assay, A. baumannii; assay type: cell-based; settings: Acinetobacter baumannii, growth inhibition, Iso-Sensitest broth, OD 600 nm over 16h, <0.098 = the detection limit
# Protocol: (§1) The in vitro antimicrobial activity of the compounds against S. aureus (ATCC29213), K. pneumoniae (ATCC10031), and A. baumannii (ATCC17978), was determined according to the following procedure: The assay used a 10-points Iso-Sensitest broth medium to measure quantitatively the in vitro activity of the compounds against S. aureus ATCC29213, K. pneumoniae ATCC 10031, and A. baumannii ATCC17978. Stock compounds in DMSO were serially two-fold diluted (range from 50 to 0.097 μM final concentration) in 384 wells microtiter plates and inoculated with 49 μL the bacterial suspension in Iso-Sensitest broth medium to have a final cell concentration of ˜5×10^5 CFU/mL in a final volume/well of 50 μL/well. Microtiter plates were incubated at 35±2° C. Bacterial cell growth was determined with the measurement of optical density at λ=600 nm each 20 minutes over a time course of 16h. Growth inhibition was calculated during the logarithmic growth of the bacterial cells with determination of the concentration inhibiting 50% (IC50) of the growth. Compounds of the present invention were tested for their concentration inhibiting 50% (IC50). The data of IC50 over S. aureus (ATCC29213), K. pneumoniae (ATCC10031), and A. baumannii (ATCC17978) are illustrated in Table 4.
# S. aureus (ATCC29213) = test: 50% growth inhibitory concentration (IC50) determination assay, S. aureus; assay type: cell-based; settings: Staphylococcus aureus, growth inhibition, Iso-Sensitest broth, OD 600 nm over 16h, <0.098 = the detection limit
# Protocol: as §1
# [1] = Lyophilisation solubility assay (LYSA); assay type: physicochemical; settings: aqueous buffer, thermodynamic from solid; 0.05 M phosphate buffer, pH 6.5; HPLC-UV; <1.0 = the detection limit; read-out: Lysa
# Protocol: The solubility of compounds of present invention was assessed by LYSA assay. Samples were prepared in duplicate from 10 mM DMSO stock solutions ([…]) diluted in 30 μL pure DMSO. After evaporation of DMSO with a centrifugal vacuum evaporator, the residue was dissolved in 0.05 M phosphate buffer (150 μL, pH 6.5), which was stirred for one hour and shook for two hours. After one night, the solution was filtered using a microtiter filter plate. Then the filtrate and its 1/10 dilution were analyzed by HPLC-UV. In addition, a four-point calibration curve was prepared from the 10 mM stock solutions and used for the solubility determination of the compounds.
# [2] = tested on: K. pneumoniae (ATCC10031); test: 50% growth inhibitory concentration (IC50) determination assay, K. pneumoniae; assay type: cell-based; settings: Klebsiella pneumoniae, growth inhibition, Iso-Sensitest broth, OD 600 nm over 16h, <0.098 = the detection limit
# Protocol: as §1
Structure (SMILES),IC50 (A. baumannii (ATCC17978)) [µM],IC50 (S. aureus (ATCC29213)) [µM],solubility thermodynamic [1] [mg/mL],IC50 [2] [µM]
"CNc1cc(F)cc2c1[nH]c1ncc(-c3cncc(C#N)c3)c(N3CCC4(C[C@H]4N)C3)c12 (stereo in doubt) [Example 1.16, 5-[6-Fluoro-8-(methylamino)-4-[cis-2-amino-5-azaspiro[2.4]heptan-5-yl]-9H-pyrido[2,3-b]indol-3-yl]pyridine-3-carbonitrile]",0.104,0.867,0.032,< 0.098
"CNc1cc(F)c(F)c2c1[nH]c1ncc(-c3cnc(OC)nc3)c(N3CCC4(C[C@H]4N)C3)c12 (stereo in doubt) [Example 1.34, 4-[Cis-2-amino-5-azaspiro[2.4]heptan-5-yl]-5,6-difluoro-3-(2-methoxypyrimidin-5-yl)-N-methyl-9H-pyrido[2,3-b]indol-8-amine]",0.157,0.603,0.093,< 0.098
"CCNc1cc(F)c(F)c2c1[nH]c1ncc(-c3cncc(C#N)c3)c(N3CC[C@@H](N)C3)c12 [Example 1.04, 5-[4-[(3R)-3-Aminopyrrolidin-1-yl]-8-(ethylamino)-5,6-difluoro-9H-pyrido[2,3-b]indol-3-yl]pyridine-3-carbonitrile]",0.212,0.38,0.145,< 0.098
"CCNc1cc(F)c(F)c2c1[nH]c1ncc(-c3cncc(C#N)c3)c(N3CCC(CN)C3)c12 (stereo not shown) [Example 1.07, 5-[4-[3-(Aminomethyl)pyrrolidin-1-yl]-8-(ethylamino)-5,6-difluoro-9H-pyrido[2,3-b]indol-3-yl]pyridine-3-carbonitrile]",0.11,1.09,0.039,< 0.098
"CCNc1cc(F)c(F)c2c1[nH]c1ncc(-c3cnc(OC)nc3)c(N3CCC(CN)C3)c12 (stereo not shown) [Example 1.08, 4-[3-(Aminomethyl)pyrrolidin-1-yl]-N-ethyl-5,6-difluoro-3-(2-methoxypyrimidin-5-yl)-9H-pyrido[2,3-b]indol-8-amine]",0.243,0.789,0.083,< 0.098
"CCNc1cc(F)c(F)c2c1[nH]c1ncc(-c3cnc4ccnn4c3)c(N3CCC(N)C3)c12 (stereo not shown) [Example 1.09, 4-(3-Aminopyrrolidin-1-yl)-N-ethyl-5,6-difluoro-3-pyrazolo[1,5-a]pyrimidin-6-yl-9H-pyrido[2,3-b]indol-8-amine]",0.147,0.238,0.19,< 0.098
"CNc1cc(F)c(F)c2c1[nH]c1ncc(-c3cncc(C#N)c3)c(N3CCC(CN)C3)c12 (stereo not shown) [Example 1.13, 5-[4-[3-(Aminomethyl)pyrrolidin-1-yl]-5,6-difluoro-8-(methylamino)-9H-pyrido[2,3-b]indol-3-yl]pyridine-3-carbonitrile]",0.764,1.5,0.046,< 0.098
"CNc1cc(F)c(F)c2c1[nH]c1ncc(-c3cncc(C#N)c3)c(N3CC[C@@H](N)C3)c12 [Example 1.15, 5-[4-[(3R)-3-Aminopyrrolidin-1-yl]-5,6-difluoro-8-(methylamino)-9H-pyrido[2,3-b]indol-3-yl]pyridine-3-carbonitrile]",0.672,0.526,0.169,< 0.098
"CCNc1cc(F)c(F)c2c1[nH]c1ncc(-c3cnc(OC)nc3)c(N3CC[C@@H](N)C3)c12 [Example 1.18, 4-[(3R)-3-Aminopyrrolidin-1-yl]-N-ethyl-5,6-difluoro-3-(2-methoxypyrimidin-5-yl)-9H-pyrido[2,3-b]indol-8-amine]",0.249,0.567,0.195,< 0.098
"CNc1cc(F)c(F)c2c1[nH]c1ncc(-c3cnc(OC)nc3)c(N3CCC(CN)C3)c12 (stereo not shown) [Example 1.19, 4-[3-(Aminomethyl)pyrrolidin-1-yl]-5,6-difluoro-3-(2-methoxypyrimidin-5-yl)-N-methyl-9H-pyrido[2,3-b]indol-8-amine]",0.683,0.712,0.031,< 0.098
"CNc1cc(F)c(F)c2c1[nH]c1ncc(-c3cncc(C#N)c3)c(N3CCC(F)(CN)C3)c12 (stereo not shown) [Example 1.22, 5-[4-[3-(Aminomethyl)-3-fluoro-pyrrolidin-1-yl]-5,6-difluoro-8-(methylamino)-9H-pyrido[2,3-b]indol-3-yl]pyridine-3-carbonitrile]",0.112,0.224,0.011,< 0.098
"CNc1cc(F)c(F)c2c1[nH]c1ncc(-c3cnc(OC)nc3)c(N3CC4CC4(CN)C3)c12 (stereo not shown) [Example 1.27, 4-[1-(Aminomethyl)-3-azabicyclo[3.1.0]hexan-3-yl]-5,6-difluoro-3-(2-methoxypyrimidin-5-yl)-N-methyl-9H-pyrido[2,3-b]indol-8-amine]",0.34,0.522,0.074,< 0.098

# These reach a lower IC50 (A. baumannii (ATCC17978)). Values come first.
IC50 (A. baumannii (ATCC17978)) [µM],IC50 (S. aureus (ATCC29213)) [µM],solubility thermodynamic [1] [mg/mL],IC50 [2] [µM],Structure (SMILES)
< 0.098,0.184,0.09,< 0.098,"CNc1cc(F)c(F)c2c1[nH]c1ncc(-c3cnc(OC)nc3)c(N3CCC4(C[C@@H]4N)C3)c12 (stereo in doubt) [Example 1.35, 4-[Trans-2-amino-5-azaspiro[2.4]heptan-5-yl]-5,6-difluoro-3-(2-methoxypyrimidin-5-yl)-N-methyl-9H-pyrido[2,3-b]indol-8-amine]"
< 0.098,1.79,0.028,< 0.098,"CCNc1cc(Cl)cc2c1[nH]c1ncc(-c3cncc(C#N)c3)c(N3CC[C@@H](N)C3)c12 [Example 1.05, 5-[4-[(3R)-3-Aminopyrrolidin-1-yl]-6-chloro-8-(ethylamino)-9H-pyrido[2,3-b]indol-3-yl]pyridine-3-carbonitrile]"
< 0.098,1.21,0.01,< 0.098,"CCNc1cc(F)cc2c1[nH]c1ncc(-c3cncc(C#N)c3)c(N3CCCC(CN)C3)c12 (stereo not shown) [Example 1.14, 5-[4-[3-(Aminomethyl)-1-piperidyl]-8-(ethylamino)-6-fluoro-9H-pyrido[2,3-b]indol-3-yl]pyridine-3-carbonitrile]"
< 0.098,1.27,0.124,< 0.098,"CCNc1cc(C(F)(F)F)cc2c1[nH]c1ncc(-c3cncc(C#N)c3)c(N3CCC(N)C3)c12 (stereo not shown) [Example 1.20, 5-[4-(3-Aminopyrrolidin-1-yl)-8-(ethylamino)-6-(trifluoromethyl)-9H-pyrido[2,3-b]indol-3-yl]pyridine-3-carbonitrile]"
< 0.098,0.993,–,< 0.098,"CCNc1cc(F)cc2c1[nH]c1ncc(-c3cnc(OC)nc3)c(N3CCC[C@@H](CN)C3)c12 [Example 1.52, (S)-4-(3-(Aminomethyl)piperidin-1-yl)-N-ethyl-6-fluoro-3-(2-methoxypyrimidin-5-yl)-9H-pyrido[2,3-b]indol-8-amine]"
< 0.098,1.38,–,0.238,"CNc1cc(F)c(F)c2c1[nH]c1ncc(-c3cnc4ccnn4c3)c(N(C)C)c12 [Example 1.62, 5,6-Difluoro-N4,N4,N8-trimethyl-3-pyrazolo[1,5-a]pyrimidin-6-yl-9H-pyrido[2,3-b]indole-4,8-diamine]"
